Assay results reported in patent US20230051589A1, “COMPOUNDS AND COMPOSITIONS FOR TREATING CONDITIONS ASSOCIATED WITH NLRP ACTIVITY” (Novartis AG, priority 2018, published 2023).
Read-outs that look alike come from different tables or passages of the source.

Test system: IL-1β production in PMA-differentiated THP-1 cells
Experiment: IL-1β production in PMA-differentiated THP-1 cells stimulated with gramicidin (hTHP-1 assay, 2% fetal bovine serum; Procedures 1-3)
Format: cell-based, human
Procedure, shortened: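 PMA-primed THP-1 cells (20 ng/ml PMA, 16-18 h) in RPMI with 2% FBS were pre-incubated with compounds for 1 h, from 100 μM downward in 3-fold steps (0.37% DMSO final), then stimulated with 5 μM gramicidin for 2 h. IL-1β in the supernatant was quantified by HTRF.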

[1] = Table B3, hTHP-1 assay containing 2% fetal bovine serum, gramicidin stimulation, IL-1β readout, read-out: hTHP-1 IC50
[2] = Homo sapiens, THP-1, hTHP-1 assay containing 2% fetal bovine serum, Table B2, class symbols, read-out: IC50
[3] = hTHP-1 assay containing 2% fetal bovine serum, Table B2, class symbols, read-out: IC50
[4] = Homo sapiens, THP-1, Table B3, hTHP-1 assay containing 2% fetal bovine serum, gramicidin stimulation, IL-1β readout, read-out: hTHP-1 IC50
[5] = Table B1, hTHP-1 assay containing 2% fetal bovine serum, gramicidin stimulation, IL-1β readout, read-out: hTHP-1 IC50 (average)

SMILES: C[C@@](O)(CO)c1ncc(S(N)(=O)=NC(=O)Nc2c3c(cc4c2C(=O)CC4)CCC3)s1 (single isomer, unassigned) [Example 819, (R) or (S) -2-((R)-1,2-dihydroxypropan-2-yl)-N′-((3-oxo-1,2,3,5,6,7-hexahydro-s-indacen-4-yl)carbamoyl)thiazole-5-sulfonimidamide]
- IC50 [1]: 0.2 to 1 µM

SMILES: CCn1ccc(S(N)(=O)=NC(=O)Nc2c3c(cc4c2CC4)CCC3)n1 (stereo not drawn) [Compound 916]
- IC50 [2]: 0.2 to 1 µM

SMILES: NS(=O)(=NC(=O)Nc1c2c(cc3c1CC3)CCC2)c1sc2c(c1F)CNCC2 (single isomer, unassigned) [Example 834, (S) or (R)-3-fluoro-N′-((2,4,5,6-tetrahydro-1H-cyclobuta[f]inden-3-yl)carbamoyl)-4,5,6,7-tetrahydrothieno[3,2-c]pyridine-2-sulfonimidamide]
- IC50 [1]: 0.2 to 1 µM

SMILES: CCn1ccc([S@@](N)(=O)=NC(=O)Nc2c3c(cc4c2CCC4)CCC3)n1 [Compound 904b]
- IC50 [2]: 1 to 5 µM

SMILES: CN(Cc1ccc(S(N)(=O)=NC(=O)Nc2c3c(cc4c2CCC4)CCC3)cc1)CC(F)(F)F (single isomer, unassigned) [Example 609, (S) or (R)-N′-((1,2,3,5,6,7-hexahydro-s-indacen-4-yl)carbamoyl)-4-((methyl(2,2,2-trifluoroethyl)amino)methyl) benzenesulfonimidamide]
- IC50 (hTHP-1 assay containing 2% fetal bovine serum, Table B2, given as bound, read-out: IC50): > 30 µM

SMILES: CC(C)(O)c1ccc(S(N)(=O)=NC(=O)Nc2cc3c(c4c2CCC4)CCC3)cn1 (single isomer, unassigned) [Example 591, (R) or (S)-N′-((1,2,3,6,7,8-hexahydro-as-indacen-4-yl)carbamoyl)-6-(2-hydro\ypropan-2-yl)pyridine-3-sulfonimidamide]
- IC50 [2]: 1 to 5 µM

SMILES: CC(C)(O)c1csc(S(N)(=O)=NC(=O)Nc2c3c(c(C#N)c4c2CCC4)CCC3)n1 (single isomer, unassigned) [Example 540, (S) or (R)-N′-((8-cyano-1,2,3,5,6,7-hexahydro-s-indacen-4-yl)carbamoyl)-4-(2-hydroxypropan-2-yl)thiazole-2-sulfonimidamide]
- IC50 [3]: 1 to 5 µM

SMILES: COC1CCc2c(csc2S(N)(=O)=NC(=O)Nc2c3c(cc4c2CCC4)CCC3)C1 (single isomer, unassigned) [Example 852, (S, R) or (R, R)-N′-((1,2,3,5,6,7-hexahydro-s-indacen-4-yl)carbamoyl)-5-methoxy-4,5,6,7-tetrahydrobenzo[c]thiophene-1-sulfonimidamide]
- IC50 [1]: 1 to 5 µM

SMILES: CNCc1cc(F)c(S(N)(=O)=NC(=O)Nc2c3c(cc4c2CCC4)CCC3)s1 (single isomer, unassigned) [Compound 412a]
- IC50 (Homo sapiens, THP-1, Table B1, hTHP-1 assay containing 2% fetal bovine serum, gramicidin stimulation, IL-1β readout, read-out: hTHP-1 IC50 (average)): 0.04 to 0.2 µM

SMILES: CC(C)(O)c1ccc(S(N)(=O)=NC(=O)Nc2cc3c(c4c2CCC4)CCC3)cn1 (stereo not drawn) [Example 464, N′-((1,2,3,6,7,8-hexahydro-as-indacen-4-yl)carbamoyl)-6-(2-hydroxypropan-2-yl)pyridine-3-sulfonimidamide]
- IC50 [2]: 1 to 5 µM

SMILES: NS(=O)(=NC(=O)Nc1c2c(cc3c1CCC3)CCC2)c1ccc(CN2CCC2)cc1F (stereo not drawn) [Example 462, 4-(azetidin-1-ylmethyl)-2-fluoro-N′-((1,2,3,5,6,7-hexahydro-s-indacen-4-yl)carbamoyl)benzenesulfonimidamide]
- IC50 [2]: 1 to 5 µM

SMILES: CNCC(C)(C)c1ccc(S(N)(=O)=NC(=O)Nc2c3c(cc4c2CCC4)CCC3)cc1 (stereo not drawn) [compound 496, N′-((1,2,3,5,6,7-hexahydro-s-indacen-4-yl)carbamoyl)-4-(2-methyl-1-(methylamino)propan-2-yl)benzenesulfonimidamide]
- IC50 [2]: 1 to 5 µM

SMILES: CN(C)C(c1ccc(S(N)(=O)=NC(=O)Nc2c3c(cc4c2CCC4)CCC3)cc1)C1CC1 (stereo not drawn) [Example 484, 4-(Cyclopropyl(dimethylamino)methyl)-N′-((1,2,3,5,6,7-hexahydro-s-indacen-4-yl)carbamoyl)benzenesulfonimidamide]
- IC50 [2]: 0.2 to 1 µM

SMILES: CN1CCc2ccc(S(N)(=O)=NC(=O)Nc3c4c(cc5c3CCC5)CCC4)cc2C1 (single isomer, unassigned) [Example 585, (R) or (S)-N′-((1,2,3,5,6,7-hexahydro-s-indacen-4-yl)carbamoyl)-2-methyl-1,2,3,4-tetrahydroisoquinoline-7-sulfonimidamide]
- IC50 [2]: 1 to 5 µM

SMILES: NS(=O)(=NC(=O)Nc1c2c(cc3c1CCC3)CCC2)c1ccc(-c2ccccc2O)s1 (stereo not drawn) [Example 729, N′-((1,2,3,5,6,7-hexahydro-s-indacen-4-yl)carbamoyl)-5-(2-hydroxyphenyl)thiophene-2-sulfonimidamide]
- IC50 [4]: 1 to 5 µM

SMILES: CC(C)(O)c1cc(F)c(S(N)(=O)=NC(=O)Nc2c3c(cc4c2CC4)CCC3)s1 (single isomer, unassigned) [Example 433]
- IC50 [3]: 0.2 to 1 µM

SMILES: CC(C)N(C)c1ccc(S(N)(=O)=NC(=O)Nc2c3c(cc4c2CCC4)CCC3)cc1 (stereo not drawn) [Example 489, N′-((1,2,3,5,6,7-hexahydro-s-indacen-4-yl)carbamoyl)-4-(isopropyl(methyl)ammo) benzenesulfonimidamide]
- IC50 [2]: 5 to 30 µM

SMILES: C[C@](O)(COCCOCc1ccccc1)c1ccc(S(N)(=O)=NC(=O)Nc2c3c(cc4c2CCC4)CCC3)s1 (mixture of isomers) [Example 747, (S) and (R)-5-((S)-1-(2-(benzyloxy)ethoxy)-2-hydroxypropan-2-yl)-N′-((1,2,3,5,6,7-hexahydro-s-indacen-4-yl)carbamoyl)thiophene-2-sulfonimidamide]
- IC50 [4]: 0.2 to 1 µM

SMILES: CC(C)c1cc(C#N)cc(C(C)C)c1NC(=O)N=S(N)(=O)c1cc(C(C)(C)O)cc(C(C)(C)O)c1 (single isomer, unassigned) [Example 198, N′-((4-cyano-2,6-diisopropylphenyl)carbamoyl)-3,5-bis(2-hydroxypropan-2-yl)benzenesulfonimidamide]
- IC50 [5]: 5 to 30 µM

SMILES: CNCC(C)(C)c1ccc(S(N)(=O)=NC(=O)Nc2c3c(cc4c2CCC4)CCC3)cc1 (single isomer, unassigned) [Example 520, (S) or (R)-N′-((1,2,3,5,6,7-hexahydro-s-indacen-4-yl)carbamoyl)-4-(2-methyl-1-(methylamino)propan-2-yl) benzenesulfonimidamide]
- IC50 [3]: 5 to 30 µM

SMILES: [2H]C1([2H])CCc2cc3c(c(NC(=O)N=S(N)(=O)c4cnc(C(C)(C)O)s4)c21)C([2H])([2H])CC3 (single isomer, unassigned) [Example 421, (R) or (S)-N′-((1,2,3,5,6,7-hexahydro-s-indacen-4-yl-3,3,5,5-d4)carbamoyl)-2-(2-hydroxypropan-2-yl)-thiazole-5-sulfonimidamide]
- IC50 [5]: 0.008 to 0.04 µM

SMILES: CNS(=O)(=O)c1cccc(S(N)(=O)=NC(=O)Nc2c3c(cc4c2CCC4)CCC3)c1 (single isomer, unassigned) [Example 791, (R) or (S)-3-(N′-((1,2,3,5,6,7-hexahydro-5-indacen-4-yl)carbamoyl)sulfamidimidoyl)-N-methylbenzenesulfonamide]
- IC50 [1]: 0.2 to 1 µM

SMILES: C[C@](O)(CO)c1ncc(S(N)(=O)=NC(=O)Nc2c3c(cc4c2CC4)CCC3)s1 (single isomer, unassigned) [Example 816, (S) or (R)-2-((S)-1,2-dihydroxypropan-2-yl)-N′-((2,4,5,6-tetrahydro-1H-cyclobuta[f]inden-3-yl)carbamoyl)thiazole-5-sulfonimidamide]
- IC50 [1]: 0.2 to 1 µM

SMILES: CC(C)c1cc(C#N)c(F)c(C(C)C)c1NC(=O)N=S(N)(=O)c1cnc(C(C)(C)O)s1 (single isomer, unassigned) [Example 91]
- IC50 [5]: 0.04 to 0.2 µM

SMILES: CN[C@H]1COc2c(S(N)(=O)=NC(=O)Nc3c4c(cc5c3CCC5)CCC4)cnn2C1 (single isomer, unassigned) [Example 697, (R) or (S)-(6R)-N′-((1,2,3,5,6,7-hexahydro-s-indacen-4-yl)carbamoyl)-6-(methylamino)-6,7-dihydro-5H-pyrazolo[5,1-b][1,3]oxazine-3-sulfonimidamide]
- IC50 [3]: 0.04 to 0.2 µM

SMILES: CN[C@H]1COc2c(S(N)(=O)=NC(=O)Nc3c4c(cc5c3CCC5)CCC4)cnn2C1 (single isomer, unassigned) [Example 698, (S) or (R)-(6R)-N′-((1,2,3,5,6,7-hexahydro-s-indacen-4-yl)carbamoyl)-6-(methylamino)-6,7-dihydro-5H-pyrazolo[5,1-b][1,3]oxazine-3-sulfonimidamide]
- IC50 [3]: 1 to 5 µM

SMILES: COC1CCc2csc(S(N)(=O)=NC(=O)Nc3c4c(cc5c3CCC5)CCC4)c2C1 (stereo not drawn) [Example 775, N′-((1,2,3,5,6,7-hexahydro-s-indacen-4-yl)carbamoyl)-6-methoxy-4,5,6,7-tetrahydrobenzo[c]thiophene-1-sulfonimidamide]
- IC50 [4]: 1 to 5 µM

SMILES: CNC(C)(C)c1ccc(S(N)(=O)=NC(=O)Nc2c3c(cc4c2CCC4)CCC3)cc1 (single isomer, unassigned) [Example 602, (R) or (S)-N′-((1,2,3,5,6,7-hexahydro-s-indacen-4-yl)carbamoyl)-4-(2-(methylamino)propan-2-yl) benzenesuIfonimidamide]
- IC50 [3]: 0.2 to 1 µM

SMILES: CCNCc1ccc([S@](N)(=O)=NC(=O)Nc2c3c(cc4c2CCC4)CCC3)cc1 [Example 700, (R)-4-((ethylamino)methyl)-N′-((1,2,3,5,6,7-hexahydro-s-indacen-4-yl)carbamoyl)-benzenesulfonimidamide]
- IC50 [2]: 1 to 5 µM

SMILES: N[S@@](=O)(=NC(=O)Nc1c2c(cc3c1CCC3)CCC2)c1ccc(CNC2CCCCCC2)cc1 [Example 704, (R)-4-((cycloheptylamino)methyl)-N′-((1,2,3,5,6,7-hexahydro-s-indacen-4-yl)-carbamoyl)-benzenesulfonimidamide]
- IC50 [2]: 1 to 5 µM
